Entries after “also recorded” stand apart in the source; their conditions may differ. *1 amine or outer side, *2 acyl side, *3 side chain or, on linkers, in order; H or OH if unused. Where a SMILES comes first, the peptide text is derived from it. Bridges are numbered along the chain shown (N, C = ends). [ ]: non-standard residue; d: D form. The star is where a group is joined. Orn(4R-OH,5R-OH) = O=C([C@H](C[C@@H](O)[C@@H](O)N[*:3])N[*:1])[*:2]; Tetradecanoyl(10R,12S-Me2) = CC[C@H](C)C[C@H](C)CCCCCCCCC(=O)*; hTyr(3S-OH,4S-OH) = N[C@H](C(=O)O)[C@H](O)[C@@H](O)c1ccc(O)cc1; Gln(3R-OH) = NC(=O)C[C@@H](O)[C@H](N)C(=O)O; Pro(3S-OH) = O=C(O)[C@H]1NCC[C@@H]1O; Hyp = O=C(O)[C@@H]1C[C@@H](O)CN1
Assays:
[1] = test system: rabbit fast skeletal (psoas) myofibrils; assay: Skeletal myofibril ATPase assay; type: biochemical; conditions: 50 μM compound, pCa 8 to pCa 4
Protocol: Rabbit psoas and bovine cardiac myofibrils were prepared as described in our previous study ([17]). An enzyme-coupled, NADH-linked ATPase assay was used to measure skeletal and cardiac myofibril ATPase activity in 96-well microplates at 23 °C. Ionic strength was maintained below 0.2 M, so myofilaments remained insoluble and stable ([32]). To achieve optimal enzymatic activities, buffers for skeletal and cardiac myofibrils differed slightly ([33], [34]): skeletal in 50 mM MOPS, 100 mM KCl, 5 mM MgCl2, 1 mM EGTA, pH 7.0; cardiac in 20 mM MOPS, 35 mM NaCl, 5 mM MgCl2, 1 mM EGTA, pH 7.0. Each well in the microplate contained an assay mix of 0.84 mM phosphoenolpyruvate, 0.17 mM NADH, 10 U/vol pyruvate kinase, 20 U/vol lactate dehydrogenase. The concentration of free Ca^2+ was controlled by EGTA buffering ([35]). Myofibrils were dispensed in microplates with a multichannel pipette and were incubated with assay mix plus compound of interest for 20 min at 23 °C. The concentration of myofibrils used was 0.01 mg/ml for skeletal and 0.05 mg/ml for cardiac myofibrils. The assay was started upon the addition of ATP, at a final concentration of 2.1 mM (total volume to 200 μl), and absorbance was recorded at 340 nm in a SpectraMax Plus microplate spectrophotometer from Molecular Devices. The steady-state myofibrillar ATPase rate was measured from NADH oxidation, measured as the rate of decrease in absorption at 340 nm for 30 min, with absorption data collected every 15 s. All data and statistical analysis of steady-state kinetics were conducted with the OriginPro program. The results were fitted with the Hill equation:(6) V=V0+(Vmax/1+10^−n∗^(pCa50−pCa)) where V is the ATPase rate and n is the Hill coefficient.
ATPase activity is reported on the μmol ATP/mg protein/min scale. Average data are presented as mean ± SD. Sample means are derived from three different myofibril preps (N = 3), each done in duplicate (n = 6).
The effects of compounds on ATPase activity of myofibrils were determined in the presence of 50 μM compound, across a 12-point pCa range from 4.0 (activation) to 8.0 (relaxation). The calcium sensitivity (pCa50) was determined by fitting the curves to the Hill equation. In all experiments, a 1% DMSO-only control was included. The normalized ATPase activity of the selected compounds can be found in Figure 6.

[2] = test system: FMAL-actin plus TMR-cC0-C2; assay: Selleck library HTS, 473 nm excitation (FLT of FMAL-actin with TMR-cC0-C2, FLT-FRET); type: binding, human
How it was run: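 Donor fluorescence lifetime was then recorded. Waveforms were fit to a single exponential, and ΔFLT was obtained after a moving-median plate-gradient correction (half-row window), rescaled by the median DMSO lifetime.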

TMR-cC0-C2 = assay: Selleck library HTS, 532 nm excitation (FLT of TMR-cC0-C2 in presence of FMAL-actin); type: binding, human
[3] = test system: TMR-fC1-C2 (C1-C2 of fast skeletal MyBP-C); assay: FLT-TMR concentration-response assay, fC1-C2; type: binding; conditions: 60 μM compound
How it was run: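 Hits tested at eight concentrations (0.5–100 μM) and read on a high-throughput fluorescence lifetime plate reader. Hill fits applied only under certain conditions.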

[4] = robust z-score, hit threshold ±4, 30 μM compound

CC[C@H](C)C[C@H](C)CCCCCCCCC(=O)N[C@H]1C[C@@H](O)[C@@H](O)NC(=O)[C@@H]2[C@@H](O)CCN2C(=O)[C@H]([C@H](O)CC(N)=O)NC(=O)[C@H]([C@H](O)[C@@H](O)c2ccc(O)cc2)NC(=O)[C@@H]2C[C@@H](O)CN2C(=O)[C@H]([C@@H](C)O)NC1=O [Pneumocandin B0] ({Tetradecanoyl(10R,12S-Me2)}-[Orn(4R-OH,5R-OH)]T[Hyp][hTyr(3S-OH,4S-OH)][Gln(3R-OH)][Pro(3S-OH)]; lactam 1-C)
effect on skeletal MF ATPase activity (in words) [1]: inhibitory effect; also recorded: affected ATPase | 473-nm Δτ, Repeat 1 ([2]; initial screen, 30 μM compound): -0.050 ns | 473-nm Δτ, Repeat 2 ([2]; initial screen, 30 μM compound): -0.053 ns | 473-nm z-score (based on avg Δτ) [2, 4]: -2.83 | 532-nm Δτ, Repeat 1 (TMR-cC0-C2; initial screen, 30 μM compound): 0.179 ns | 532-nm Δτ, Repeat 2 (TMR-cC0-C2; initial screen, 30 μM compound): 0.149 ns | 532-nm z-score (based on avg Δτ) (TMR-cC0-C2; [4]): 10.04 | cC0-C2/fC1-C2 (ratio of FLT changes) [3]: 1.1 | fC1-C2 FLT change (% change from DMSO, FLT of TMR-MyBP-C) [3]: 11.4%
